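The compound was tested at five concentrations on cells cultured in 96-well plates, with a 48-hour exposure period. The concentration for 50% growth inhibition is given as GI50.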 The source made the active and inactive calls. No stated cut-off is given here; in the data, active = GI50 up to about 1.1 µM and inactive = higher.
Legend:
Test in all cases: NCI-60 cell line screen, 48 h
[1] = test system: SF-295
[2] = test system: MOLT-4
[3] = test system: TK-10
[4] = test system: SR
[5] = test system: UACC-257
[6] = test system: SN12C
[7] = test system: MDA-N
[8] = test system: ACHN
[9] = test system: UACC-62
[10] = test system: Malme-3M
[11] = test system: SNB-19
[12] = test system: EKVX
[13] = test system: HL-60
[14] = test system: NCI-H522
[15] = test system: HOP-62
[16] = test system: HCT-116
[17] = test system: K562
[18] = test system: SK-MEL-2
[19] = test system: KM12
[20] = test system: T47D

Measured: GI50

CN(CCO)CCCC1COc2ccccc2O1 (stereo unspecified)
inactive: [1] 51.3 µM | [2] > 100 µM | [3] > 100 µM | [4] > 100 µM | [5] > 100 µM | [6] > 100 µM | [7] > 100 µM | [8] 63.8 µM | [9] > 100 µM | [10] > 100 µM | [11] > 100 µM | [12] 73.3 µM | [13] > 100 µM | [14] > 100 µM | [15] > 100 µM | [16] > 100 µM | [17] > 100 µM

Clc1ccc2nc3[nH]nc(Cl)c3nc2c1
inactive: [1] 72.6 µM | [18] 40.6 µM | [2] 30.5 µM | [3] 56.5 µM | [5] 66.8 µM | [6] 38.5 µM | [7] 76.9 µM | [8] 52.8 µM | [9] 45.3 µM | [11] 45.6 µM | [12] 16.7 µM | [15] 53.5 µM | [16] 42.9 µM | [17] 52.4 µM | [19] 59.3 µM | [20] 44.1 µM

COC1(OC)CC2CCCCC2=C(C)N1S(=O)(=O)c1ccccc1 (stereo unspecified)
inactive: [1] > 100 µM | [18] > 100 µM | [2] > 10 µM | [3] > 100 µM | [4] > 100 µM | [5] > 100 µM | [6] > 100 µM | [8] > 100 µM | [9] > 100 µM | [10] > 100 µM | [11] > 100 µM | [12] > 100 µM | [13] > 100 µM | [14] > 100 µM | [15] > 100 µM | [16] > 100 µM | [17] > 100 µM | [19] > 100 µM

COc1c(Br)cc(/C=C(\C#N)c2cccnc2)cc1Br
inactive: [1] 52.7 µM | [18] 96.6 µM | [2] 49.1 µM | [3] 61.7 µM | [4] 29.5 µM | [5] > 100 µM | [6] > 100 µM | [7] > 100 µM | [8] 93.3 µM | [9] > 100 µM | [10] > 100 µM | [11] > 100 µM | [12] 4.31 µM | [13] 36.2 µM | [14] 42.1 µM | [15] 54.8 µM | [16] > 100 µM | [17] 80.9 µM | [19] 33.1 µM

Cc1noc(NC(=O)Nc2ccccc2F)c1C#N
inactive: [1] 41.5 µM | [18] > 39.8 µM | [2] 48.9 µM | [3] > 27.2 µM | [4] 21.4 µM | [5] 30.9 µM | [6] 16.1 µM | [8] 22.2 µM | [9] > 27.4 µM | [10] 28.8 µM | [11] > 35 µM | [12] 11.6 µM | [13] 84.5 µM | [14] 7.93 µM | [15] 22.3 µM | [16] 14.4 µM | [17] > 45.8 µM | [19] > 100 µM | [20] 18.3 µM

CCCCCCC(=O)c1ccc2ccccc2c1O
inactive: [1] 34.5 µM | [18] 23.8 µM | [2] 20.3 µM | [3] > 100 µM | [4] 33.3 µM | [5] 32.7 µM | [8] 54 µM | [9] 47 µM | [11] > 100 µM | [12] 25.4 µM | [13] 36.4 µM | [15] > 100 µM | [16] 53 µM | [17] > 100 µM | [19] 31 µM | [20] 34.8 µM

COc1ccc(C2Oc3c(c(O)cc4c3[C@H](c3ccc(O)cc3O)[C@H](O)C(c3ccc(O)c(O)c3)O4)C[C@@H]2O)cc1O (stereo partly specified)
inactive: [1] > 100 µM | [18] > 100 µM | [2] > 100 µM | [3] > 100 µM | [4] > 100 µM | [5] > 100 µM | [6] > 100 µM | [8] > 100 µM | [9] > 100 µM | [10] > 100 µM | [11] > 100 µM | [12] > 100 µM | [13] > 100 µM | [14] > 100 µM | [15] > 100 µM | [16] > 100 µM | [17] > 100 µM | [19] > 100 µM

COC(=O)C(=O)C(C(C)=O)C(=O)NCc1ccc(OC)c(OC)c1 (stereo unspecified)
inactive: [1] > 100 µM | [18] > 100 µM | [2] > 100 µM | [3] > 100 µM | [4] > 100 µM | [5] > 100 µM | [6] > 100 µM | [8] > 100 µM | [9] > 100 µM | [10] > 100 µM | [11] > 100 µM | [12] > 100 µM | [13] > 100 µM | [14] > 100 µM | [15] > 100 µM | [16] > 100 µM | [17] > 100 µM | [19] > 100 µM

— ChEMBL document CHEMBL1201862, “PubChem BioAssay data set” (2004)
